Here are results for 23 molecules from ChEMBL document CHEMBL4043240, “Synthesis and evaluation of the NSCLC anti-cancer activity and physical properties of 4-aryl-N-phenylpyrimidin-2-amines” (Bioorg Med Chem Lett, 2017).

Series [1] has as its system A549. The series can be described thus: Cytotoxicity against human A549 cells after 72 hrs by MTT assay. The class given is functional, cell-based. As to conditions: A549, 72 h. For orientation: Tetrazolium dyes change colour on reduction, which living cells bring about.
Series [2] concerns Vero. Briefly: Cytotoxicity against African green monkey Vero cells after 72 hrs by MTT assay. It is filed as ADME, cell-based. As to conditions: Chlorocebus sabaeus.
Series [3] in a line: Selectivity index, ratio of IC50 for African green monkey Vero cells to IC50 for human A549 cells. The class given is functional.
The subject of series [4] is KB. The series can be described thus: Cytotoxicity against human KB cells after 72 hrs by resazurin based fluorescence assay. It is filed as functional, cell-based. For orientation: Alamar Blue is a resazurin reagent that responds to reducing activity.
The test system of series [5] is KB. Briefly: Cytotoxicity against human KB cells at 10 uM after 72 hrs by resazurin based fluorescence assay relative to control. It is filed as functional.
The test system of series [6] is NCI-H187. The series can be described thus: Cytotoxicity against human NCI-H187 cells after 72 hrs by resazurin based fluorescence assay. It is filed as functional, cell-based. The following applies: NCI-H187, 72 h.
Series [7] has as its system NCI-H187. The series can be described thus: Cytotoxicity against human NCI-H187 cells at 10 uM after 72 hrs by resazurin based fluorescence assay. It is filed as functional.
Series [8] relates to MCF7. The series can be described thus: Cytotoxicity against human MCF7 cells at 10 uM after 72 hrs by resazurin based fluorescence assay. It is filed as functional.
Series [9] is described as follows: Solubility of the compound in PBS at pH 7.4 by HPLC-UV analysis. It is filed as physicochemical.
The nature of series [10]: 1-octanol/water partition co-efficient, log D of the compound in PBS at pH 7.4 after 6 hrs by HPLC-UV based shake-flask method. The class given is physicochemical. The following applies: 1-octanol/PBS.
Series [11] deals with MCF7. The series can be described thus: cells. As to conditions: Homo sapiens, MCF7, 72 h.
Description: Cytotoxicity against human MCF7 cells after 72 hrs by resazurin based fluorescence assay
Series [12] concerns the target Cyclin-dependent kinase 5 (Homo sapiens, UniProt Q00535). The series can be described thus: Inhibition of human CDK5.
In series [13] the test system is KB. The series can be described thus: Cytotoxicity against human KB cells at 10 ug/ml after 72 hrs by resazurin based fluorescence assay relative to control. The class given is functional.
In series [14] the test system is NCI-H187. The series can be described thus: Cytotoxicity against human NCI-H187 cells at 10 ug/ml after 72 hrs by resazurin based fluorescence assay. The class given is functional.

Converted amounts (≈) assume the structure as drawn.

Chain of Cyclin-dependent kinase 5 (Q00535 whole entry): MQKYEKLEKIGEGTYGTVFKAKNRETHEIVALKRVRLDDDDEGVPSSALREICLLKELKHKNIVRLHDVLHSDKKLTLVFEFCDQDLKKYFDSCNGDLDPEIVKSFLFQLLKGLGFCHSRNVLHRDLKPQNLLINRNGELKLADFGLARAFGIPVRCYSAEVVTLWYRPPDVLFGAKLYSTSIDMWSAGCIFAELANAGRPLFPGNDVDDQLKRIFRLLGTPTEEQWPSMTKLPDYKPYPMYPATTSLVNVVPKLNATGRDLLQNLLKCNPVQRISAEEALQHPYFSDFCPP

By IC50 is commonly meant the concentration at which inhibition is half-maximal. On to `COc1ccc(-c2ccnc(Nc3ccc(S(N)(=O)=O)cc3)n2)cc1`, for which the figures for the IC50 in [1] and in series [2] were 4.4 µM and 2.4 µM, respectively. The “Ratio IC50” value in [3] was determined as 0.

What is called solubility is the dissolved amount per volume that the medium holds. One may read the logD as lipophilicity at a set pH, counting ionised and neutral species. As for `COc1ccc(-c2ccnc(Nc3cccc(S(N)(=O)=O)c3)n2)cc1`, the IC50 in series [1] worked out at 1.6 µM; in series [2] it was 1.1 µM; in series [4], 1290 nM; in series [6], 2080 nM; in series [11], 5.95 µM. For the same molecule, the “Ratio IC50” value in [3] is 0. The Activity in [5] is 76.3%; in series [7], 82.3%; in [8], 63.3%. Besides, the concentration in solution in series [9] (solubility) came to 38.4 µM (≈ 13.7 µg/mL). This molecule yielded a logD at 6 h in [10] of 2.7.

As to `COc1ccc(-c2ccnc(Nc3cccc(NS(C)(=O)=O)c3)n2)cc1`, the IC50 in series [1] is 0.2 µM; in series [2] it was 0.9 µM; in [6], 5350 nM. In series [3], the “Ratio IC50” value worked out at 4.5. The Activity was 43.7% in [5], 84.8% in series [7] and 41% in series [8]. Besides, the solubility in series [9] is less than 0.5 µM. In series [10], this molecule registered a pH-dependent lipophilicity (logD) at 6 h of 3.2.

For `Cc1csc(-c2ccnc(Nc3ccc(C(N)=O)cc3)n2)c1`, the IC50 in series [1] worked out at 30 µM; in series [2], 6.2 µM. Further, the “Ratio IC50” value in [3] was determined as 0.

As for `CS(=O)(=O)c1ccc(-c2ccnc(Nc3cccc(C(N)=O)c3)n2)cc1`, the IC50 in series [1] is greater than 100 µM; in [2], 37.9 µM. Besides, in [3], the “Ratio IC50” value worked out at 0.

As for `COc1ccc(-c2ccnc(Nc3ccc4nc[nH]c4c3)n2)cc1`, the IC50 was determined as 13.9 µM in series [1] and 14.8 µM in series [2]. Further, the “Ratio IC50” value in [3] is recorded as 1.1.

On to `CC(=O)Nc1ccc(-c2ccnc(Nc3cccc(C(N)=O)c3)n2)cc1`, for which the half-maximal inhibitory concentration (IC50) was 33 µM in series [1] and greater than 100 µM in series [2]. Moreover, the “Ratio IC50” value in [3] is given as greater than 3.

Regarding `COc1ccc(-c2ccnc(Nc3ccc(C(=O)O)cc3)n2)cc1`, the values for the half-inhibitory concentration (IC50) in [1] and in series [2] were 20.3 µM and greater than 100 µM, respectively. In addition, the “Ratio IC50” value in series [3] is listed as greater than 4.9. Besides, the Activity in series [5] came out at 0%; in series [7] it was 23.5%; in series [8] it was 0%. The same molecule returned a solubility in series [9] of 12.1 µM (≈ 3.89 µg/mL). In series [10], this molecule registered a logD at 6 h of 1.2.

As for `CC(=O)Nc1ccc(-c2ccnc(Nc3cccc(S(N)(=O)=O)c3)n2)cc1`, the concentration for half-maximal inhibition (IC50) in series [1] turned out to be 6.6 µM; in [2], 8.7 µM. Also, in [3], the “Ratio IC50” value is recorded as 1.3.

Regarding `COc1ccc(-c2ccnc(Nc3cccc(C(N)=O)c3)n2)cc1`, the values for the IC50 in series [1] and in series [2] were 6.7 µM and 2.7 µM, respectively. Moreover, the “Ratio IC50” value in [3] came out at 0. Besides, the results for the Activity in series [5], in [7] and in [8] were 0%, 18.6% and 0%, respectively. The solubility in [9] came to 4.1 µM (≈ 1.31 µg/mL). Also, in series [10], the logD at 6 h turned out to be 3.1.

`Cc1csc(-c2ccnc(Nc3cc([N+](=O)[O-])ccc3O)n2)c1`: the IC50 in [1] and in [2] was greater than 100 µM each time. Further, the “Ratio IC50” value in series [3] is 0.

As to `COC(=O)c1ccc(Nc2nccc(-c3ccc(OC)cc3)n2)cc1`, the values for the IC50 in series [1] and in series [2] were 6 µM and 4.5 µM, respectively. Also, the “Ratio IC50” value in series [3] is listed as 0. Besides, the Activity in series [5] is listed as 0%; in series [7], 23.8%; in series [8] it was 0%. Moreover, the solubility in series [9] stood at 6.9 µM (≈ 2.31 µg/mL). In series [10], this molecule returned a logD at 6 h of 2.9.

In the case of `Cc1csc(-c2ccnc(Nc3ccc(C(=O)O)cc3)n2)c1`, the results for the IC50 in series [1] and in [2] were 18.2 µM and 80.8 µM, respectively. In addition, in series [3], the “Ratio IC50” value was determined as 4.4.

`COc1cccc(-c2ccnc(Nc3cccc(S(N)(=O)=O)c3)n2)c1`: the half-maximal inhibitory concentration (IC50) is 2.6 µM in [1]; 1.1 µM in [2]; 3560 nM in [4]; 1340 nM in [6]; 1.5 µM in series [11]. In addition, the “Ratio IC50” value in series [3] was 0. Also, the values for the Activity in [5], in series [7] and in series [8] were 94.9%, 96.6% and 63.8%, respectively. Also, the solubility in [9] was less than 0.6 µM. Besides, in series [10], the pH-dependent lipophilicity (logD) at 6 h stood at 3.

Take `COc1ccc(-c2ccnc(Nc3cccc(N)c3)n2)cc1`: in [12], half-maximal inhibition (IC50) was put at 81 µM.

`NS(=O)(=O)c1cccc(Nc2nccc(-c3ccccc3)n2)c1`: the IC50 turned out to be 0.2 µM in [1], 0.8 µM in [2], 2440 nM in series [4] and 1180 nM in [6]. Also, the “Ratio IC50” value in [3] was determined as 4. Moreover, the Activity is 93.6% in series [5], 99.8% in [7] and 0% in [8]. The solubility in series [9] stood at 3.4 µM (≈ 1.11 µg/mL). For the same molecule, in series [10], the pH-dependent lipophilicity (logD) at 6 h amounted to 2.9.

As for `CS(=O)(=O)c1ccc(-c2ccnc(Nc3cccc(S(N)(=O)=O)c3)n2)cc1`, the 50% inhibitory concentration (IC50) in series [1] and in series [2] was greater than 100 µM each time. Also, in series [3], the “Ratio IC50” value is 0.

For `COc1ccc(-c2ccnc(Nc3ccc(C(N)=O)cc3)n2)cc1`, the IC50 came out at 5.3 µM in series [1] and 5.4 µM in [2]. In addition, the “Ratio IC50” value in series [3] is on record as 0. The Activity came out at 0% in [5], 28.1% in series [7] and 1.9% in series [8]. The same molecule returned a solubility in series [9] of less than 0.6 µM. In series [10], this molecule registered a logD at 6 h of 2.8.

In the case of `Cc1csc(-c2ccnc(Nc3cccc(C(N)=O)c3)n2)c1`, the IC50 in [1] and in series [2] was greater than 100 µM in each case. The “Ratio IC50” value in series [3] stood at 0.

Turning to `COc1ccc(-c2ccnc(Nc3ccc4cn[nH]c4c3)n2)cc1`, the values for the IC50 in [1] and in series [2] were 65.1 µM and 7.9 µM, respectively. In addition, the “Ratio IC50” value in series [3] worked out at 0.

In the case of `COc1cccc2c1C(=O)c1c(O)c3c(c(O)c1C2=O)C[C@@](O)(C(=O)CO)C[C@@H]3O[C@H]1C[C@H](N)[C@H](O)[C@H](C)O1` [DOXORUBICIN], the concentration for half-maximal inhibition (IC50) in series [1] worked out at 0.4 µM; in series [2] it was 1.4 µM; in series [4], 1350 nM; in [6], 60 nM. For the same molecule, the results for the Activity in series [13] and in [14] were 99.7% and 96.98%, respectively.

On to `Cc1c2ccncc2c(C)c2c1[nH]c1ccccc12` [ELLIPTECINE], for which the IC50 in [4] stood at 2810 nM; in series [6] it was 950 nM. Further, the Activity in [13] worked out at 96.3%; in series [14], 99.24%.

The molecule `CC/C(=C(\c1ccccc1)c1ccc(OCCN(C)C)cc1)c1ccccc1` [TAMOXIFEN] showed a 50% inhibitory concentration (IC50) in series [11] of 7.94 µM.
